{
  "source": "paper PMC3272775",
  "about": "(Journal of Medicinal Chemistry, 2012)",
  "key": {"[1]": {"conditions": "chronic and neuropathic pain; ref [45], [46]; cited from earlier work"}, "[2]": {"tested_on": "α4β2-nAChR from rat cerebral cortical membranes", "conditions": "ref [39], [40]; cited from earlier work"}, "human α4β2-nAChR": {"molecular_target": "human α4β2-nAChR (Homo sapiens, UniProt P17787+P43681)", "sequence (P43681 29-627 limits assumed)": "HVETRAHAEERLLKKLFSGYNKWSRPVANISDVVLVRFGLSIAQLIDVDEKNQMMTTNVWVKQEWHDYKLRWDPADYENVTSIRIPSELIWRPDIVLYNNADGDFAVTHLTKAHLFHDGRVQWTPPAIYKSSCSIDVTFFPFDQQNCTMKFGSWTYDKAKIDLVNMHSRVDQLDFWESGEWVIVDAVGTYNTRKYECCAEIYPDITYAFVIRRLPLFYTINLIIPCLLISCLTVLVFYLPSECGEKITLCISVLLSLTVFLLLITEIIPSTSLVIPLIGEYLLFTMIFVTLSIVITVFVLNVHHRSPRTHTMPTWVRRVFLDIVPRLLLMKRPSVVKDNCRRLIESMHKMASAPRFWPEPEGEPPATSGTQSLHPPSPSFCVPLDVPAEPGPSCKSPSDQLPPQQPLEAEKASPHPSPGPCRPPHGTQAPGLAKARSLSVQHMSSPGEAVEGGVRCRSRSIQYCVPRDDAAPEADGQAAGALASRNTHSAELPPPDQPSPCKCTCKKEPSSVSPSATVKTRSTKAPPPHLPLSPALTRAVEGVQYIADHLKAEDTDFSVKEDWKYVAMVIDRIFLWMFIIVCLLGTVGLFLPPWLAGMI", "sequence (P17787 26-502)": "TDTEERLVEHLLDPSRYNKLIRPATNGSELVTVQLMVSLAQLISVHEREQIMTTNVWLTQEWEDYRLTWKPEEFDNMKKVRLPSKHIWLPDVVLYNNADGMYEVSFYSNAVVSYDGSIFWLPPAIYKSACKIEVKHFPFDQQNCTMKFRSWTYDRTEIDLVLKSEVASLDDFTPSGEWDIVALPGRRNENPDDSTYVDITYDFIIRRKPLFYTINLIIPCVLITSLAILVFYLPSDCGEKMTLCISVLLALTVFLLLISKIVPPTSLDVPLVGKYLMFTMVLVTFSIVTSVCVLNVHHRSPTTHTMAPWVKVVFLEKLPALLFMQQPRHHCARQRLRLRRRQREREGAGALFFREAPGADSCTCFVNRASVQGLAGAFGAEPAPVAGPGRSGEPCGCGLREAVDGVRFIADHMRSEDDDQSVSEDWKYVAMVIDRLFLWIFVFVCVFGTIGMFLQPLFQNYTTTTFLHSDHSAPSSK", "test": "86Rb+ efflux assay in SH-EP1-hα4β2 cells", "assay_type": "cell-based", "conditions": "efficacies similar to that of carbamylcholine"}, "α3β4*-nAChR": {"molecular_target": "α3β4*-nAChR (Homo sapiens, UniProt P30926+P32297)", "sequence (P32297 32-505)": "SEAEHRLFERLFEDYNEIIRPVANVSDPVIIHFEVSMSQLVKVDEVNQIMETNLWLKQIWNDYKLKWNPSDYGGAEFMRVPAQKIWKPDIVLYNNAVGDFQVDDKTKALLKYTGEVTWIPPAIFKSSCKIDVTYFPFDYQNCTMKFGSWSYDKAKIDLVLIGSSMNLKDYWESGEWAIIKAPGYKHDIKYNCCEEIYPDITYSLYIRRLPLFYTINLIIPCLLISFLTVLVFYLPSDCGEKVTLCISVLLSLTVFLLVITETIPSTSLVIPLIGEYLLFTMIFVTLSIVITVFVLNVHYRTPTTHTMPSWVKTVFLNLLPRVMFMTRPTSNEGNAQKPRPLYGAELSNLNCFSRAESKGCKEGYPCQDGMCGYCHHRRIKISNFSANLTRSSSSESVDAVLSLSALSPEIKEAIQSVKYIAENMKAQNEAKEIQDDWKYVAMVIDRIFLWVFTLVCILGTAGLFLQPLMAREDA", "sequence (P30926 22-498)": "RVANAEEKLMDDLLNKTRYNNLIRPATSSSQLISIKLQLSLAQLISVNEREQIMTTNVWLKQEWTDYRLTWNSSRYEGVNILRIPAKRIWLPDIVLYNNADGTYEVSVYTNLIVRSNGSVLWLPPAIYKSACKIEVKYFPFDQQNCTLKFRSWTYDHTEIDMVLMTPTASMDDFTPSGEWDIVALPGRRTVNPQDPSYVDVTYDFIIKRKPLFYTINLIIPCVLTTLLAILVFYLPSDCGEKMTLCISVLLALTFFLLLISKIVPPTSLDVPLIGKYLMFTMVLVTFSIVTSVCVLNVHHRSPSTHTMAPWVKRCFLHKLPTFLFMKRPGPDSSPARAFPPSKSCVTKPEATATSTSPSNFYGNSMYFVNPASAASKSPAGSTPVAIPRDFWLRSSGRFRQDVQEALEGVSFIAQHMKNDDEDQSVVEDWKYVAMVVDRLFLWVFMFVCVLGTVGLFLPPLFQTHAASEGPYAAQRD", "test": "86Rb+ efflux assay in SH-SY5Y cells", "assay_type": "cell-based", "conditions": "efficacies similar to that of carbamylcholine"}, "CYP3A4": {"molecular_target": "CYP3A4 (Homo sapiens, UniProt P08684)", "test": "Multiple CYP inhibition assay in human liver microsomes, CYP3A4", "assay_type": "in vitro ADME"}, "[3]": {"tested_on": "immobility in the mouse forced swim test", "test": "Mouse forced swim test", "assay_type": "in vivo"}, "CYP2D6": {"molecular_target": "CYP2D6 (Homo sapiens, UniProt P10635)", "sequence (P10635 whole entry)": "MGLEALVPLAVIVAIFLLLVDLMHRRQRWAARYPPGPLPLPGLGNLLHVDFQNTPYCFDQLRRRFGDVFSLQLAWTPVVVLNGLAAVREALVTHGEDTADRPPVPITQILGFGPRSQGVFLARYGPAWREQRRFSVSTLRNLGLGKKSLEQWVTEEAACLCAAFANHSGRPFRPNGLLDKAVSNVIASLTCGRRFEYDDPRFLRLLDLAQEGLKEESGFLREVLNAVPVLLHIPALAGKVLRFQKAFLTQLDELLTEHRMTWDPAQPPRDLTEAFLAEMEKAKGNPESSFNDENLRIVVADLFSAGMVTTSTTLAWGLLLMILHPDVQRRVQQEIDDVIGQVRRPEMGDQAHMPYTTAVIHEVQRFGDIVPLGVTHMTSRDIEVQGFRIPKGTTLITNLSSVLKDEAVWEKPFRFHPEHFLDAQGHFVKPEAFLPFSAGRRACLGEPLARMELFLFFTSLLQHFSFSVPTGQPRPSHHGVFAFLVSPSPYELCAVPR", "test": "Multiple CYP inhibition assay in human liver microsomes, CYP2D6", "assay_type": "in vitro ADME"}, "CYP2B6": {"molecular_target": "T1, CYP2B6 (Homo sapiens, UniProt P20813)", "T1 sequence (P20813 1-491)": "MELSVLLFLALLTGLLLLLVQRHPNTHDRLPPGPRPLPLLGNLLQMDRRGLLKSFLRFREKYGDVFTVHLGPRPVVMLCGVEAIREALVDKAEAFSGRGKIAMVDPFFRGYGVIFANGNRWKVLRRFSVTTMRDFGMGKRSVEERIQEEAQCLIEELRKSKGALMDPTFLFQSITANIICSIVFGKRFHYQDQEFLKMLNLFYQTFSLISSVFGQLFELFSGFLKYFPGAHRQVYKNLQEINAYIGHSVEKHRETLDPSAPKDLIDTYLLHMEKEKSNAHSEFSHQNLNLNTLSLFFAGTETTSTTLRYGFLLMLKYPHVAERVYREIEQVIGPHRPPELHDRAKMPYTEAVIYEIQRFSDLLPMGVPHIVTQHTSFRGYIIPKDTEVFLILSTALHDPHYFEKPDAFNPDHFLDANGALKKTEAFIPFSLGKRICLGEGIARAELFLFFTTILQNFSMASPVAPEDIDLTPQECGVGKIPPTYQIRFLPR", "test": "Multiple CYP inhibition assay in human liver microsomes, CYP2B6", "assay_type": "in vitro ADME"}, "[4]": {"tested_on": "about 45 other CNS neurotransmitter receptors and transporters", "test": "Broad-range screening", "assay_type": "binding", "conditions": "10 μM; about 45 receptors and transporters"}, "CYP1A2": {"molecular_target": "T2, CYP1A2 (Homo sapiens, UniProt P05177)", "T2 sequence (P05177 1-516)": "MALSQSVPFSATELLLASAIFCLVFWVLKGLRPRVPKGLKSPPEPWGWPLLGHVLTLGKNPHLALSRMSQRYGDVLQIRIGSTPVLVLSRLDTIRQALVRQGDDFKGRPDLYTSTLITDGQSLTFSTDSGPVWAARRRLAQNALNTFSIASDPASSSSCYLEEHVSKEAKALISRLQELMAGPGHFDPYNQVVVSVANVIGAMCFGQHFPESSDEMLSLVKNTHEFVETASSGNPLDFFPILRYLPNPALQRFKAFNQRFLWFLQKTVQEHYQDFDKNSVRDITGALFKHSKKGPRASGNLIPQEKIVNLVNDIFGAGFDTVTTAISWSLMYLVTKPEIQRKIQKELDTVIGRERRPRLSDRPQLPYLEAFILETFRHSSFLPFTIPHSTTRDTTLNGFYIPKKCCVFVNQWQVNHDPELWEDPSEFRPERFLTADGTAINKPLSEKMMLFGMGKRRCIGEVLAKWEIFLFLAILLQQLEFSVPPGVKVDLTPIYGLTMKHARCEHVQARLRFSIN", "test": "Multiple CYP inhibition assay in human liver microsomes, CYP1A2", "assay_type": "in vitro ADME"}, "CYP2C9": {"molecular_target": "CYP2C9 (Homo sapiens, UniProt P11712)", "sequence (P11712 whole entry)": "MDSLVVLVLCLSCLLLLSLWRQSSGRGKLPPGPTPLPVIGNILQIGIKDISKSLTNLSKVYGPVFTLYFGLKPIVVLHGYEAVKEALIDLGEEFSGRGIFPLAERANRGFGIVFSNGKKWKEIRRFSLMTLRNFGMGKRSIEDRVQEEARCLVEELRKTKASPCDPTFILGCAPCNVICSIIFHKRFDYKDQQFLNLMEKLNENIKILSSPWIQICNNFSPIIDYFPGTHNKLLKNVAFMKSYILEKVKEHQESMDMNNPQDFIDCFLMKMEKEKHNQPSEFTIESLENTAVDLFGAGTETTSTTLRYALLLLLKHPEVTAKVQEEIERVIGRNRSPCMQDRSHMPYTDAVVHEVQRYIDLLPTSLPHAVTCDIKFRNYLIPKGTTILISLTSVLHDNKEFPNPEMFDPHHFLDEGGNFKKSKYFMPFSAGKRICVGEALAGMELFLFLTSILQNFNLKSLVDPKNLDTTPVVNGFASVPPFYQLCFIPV", "test": "Multiple CYP inhibition assay in human liver microsomes, CYP2C9", "assay_type": "in vitro ADME"}, "CYP2C19": {"molecular_target": "CYP2C19 (Homo sapiens, UniProt P33261)", "test": "Multiple CYP inhibition assay in human liver microsomes, CYP2C19", "assay_type": "in vitro ADME"}, "α1β1γδ-nAChR": {"molecular_target": "α1β1γδ-nAChR (Homo sapiens, UniProt P02708+P07510+Q07001)", "sequence (P02708 21-457)": "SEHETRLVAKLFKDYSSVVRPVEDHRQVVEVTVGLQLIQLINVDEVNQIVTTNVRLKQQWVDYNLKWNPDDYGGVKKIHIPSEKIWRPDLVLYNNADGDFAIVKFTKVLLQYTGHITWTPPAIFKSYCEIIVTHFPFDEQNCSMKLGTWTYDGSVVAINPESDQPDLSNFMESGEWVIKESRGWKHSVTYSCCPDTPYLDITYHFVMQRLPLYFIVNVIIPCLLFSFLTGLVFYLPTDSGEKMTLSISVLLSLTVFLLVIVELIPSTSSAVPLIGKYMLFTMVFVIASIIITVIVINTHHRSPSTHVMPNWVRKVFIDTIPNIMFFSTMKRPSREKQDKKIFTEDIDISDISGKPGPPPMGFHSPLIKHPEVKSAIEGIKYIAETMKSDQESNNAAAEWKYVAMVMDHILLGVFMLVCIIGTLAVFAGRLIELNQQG", "sequence (P11230 24-501 partner)": "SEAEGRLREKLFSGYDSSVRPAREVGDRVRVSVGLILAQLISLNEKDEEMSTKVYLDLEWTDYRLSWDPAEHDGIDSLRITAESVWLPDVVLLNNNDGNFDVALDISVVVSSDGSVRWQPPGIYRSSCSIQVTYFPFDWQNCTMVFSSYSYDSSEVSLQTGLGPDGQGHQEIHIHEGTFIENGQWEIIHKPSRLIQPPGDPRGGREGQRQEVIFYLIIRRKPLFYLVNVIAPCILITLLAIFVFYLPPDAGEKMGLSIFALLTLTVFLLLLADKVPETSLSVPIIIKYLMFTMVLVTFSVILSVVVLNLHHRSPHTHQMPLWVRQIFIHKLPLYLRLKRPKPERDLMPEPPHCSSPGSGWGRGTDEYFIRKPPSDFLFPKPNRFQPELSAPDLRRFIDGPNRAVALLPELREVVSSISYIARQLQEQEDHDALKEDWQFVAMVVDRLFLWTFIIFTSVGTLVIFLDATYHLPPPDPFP", "sequence (P07510 23-517)": "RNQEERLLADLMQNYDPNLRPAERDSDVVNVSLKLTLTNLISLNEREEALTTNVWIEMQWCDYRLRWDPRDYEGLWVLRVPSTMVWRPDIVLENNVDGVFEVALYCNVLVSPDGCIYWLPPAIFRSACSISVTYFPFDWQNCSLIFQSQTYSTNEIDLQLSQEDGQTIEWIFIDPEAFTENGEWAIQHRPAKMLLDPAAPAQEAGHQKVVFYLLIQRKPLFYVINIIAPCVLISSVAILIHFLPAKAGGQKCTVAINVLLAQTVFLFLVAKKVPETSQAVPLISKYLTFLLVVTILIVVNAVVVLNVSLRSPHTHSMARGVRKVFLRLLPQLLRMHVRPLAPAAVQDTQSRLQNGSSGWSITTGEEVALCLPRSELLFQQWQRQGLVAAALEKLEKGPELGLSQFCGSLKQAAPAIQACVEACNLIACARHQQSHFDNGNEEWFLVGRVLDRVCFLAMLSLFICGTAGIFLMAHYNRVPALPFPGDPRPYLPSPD", "sequence (Q07001 22-517)": "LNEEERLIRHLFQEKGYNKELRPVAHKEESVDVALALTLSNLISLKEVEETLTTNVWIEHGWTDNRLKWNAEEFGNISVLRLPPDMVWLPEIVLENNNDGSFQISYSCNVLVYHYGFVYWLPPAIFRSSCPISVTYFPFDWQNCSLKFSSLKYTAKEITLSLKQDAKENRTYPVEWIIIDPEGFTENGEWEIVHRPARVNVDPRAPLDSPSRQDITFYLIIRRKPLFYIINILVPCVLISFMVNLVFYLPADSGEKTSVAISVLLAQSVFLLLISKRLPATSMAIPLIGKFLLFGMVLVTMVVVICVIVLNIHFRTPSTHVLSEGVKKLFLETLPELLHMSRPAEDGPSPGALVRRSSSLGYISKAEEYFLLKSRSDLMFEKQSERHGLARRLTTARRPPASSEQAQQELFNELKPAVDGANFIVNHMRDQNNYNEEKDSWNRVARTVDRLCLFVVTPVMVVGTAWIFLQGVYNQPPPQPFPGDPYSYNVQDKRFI", "test": "86Rb+ efflux assay in TE671/RD cells", "assay_type": "cell-based"}},
  "note": "“Also recorded” adds a separate entry of the source. Counter-ions that a name gives are not always drawn.",
  "data": [
    {"smiles": "Clc1ccc(OC[C@H]2CCN2)cn1", "note": "[Compound 10]", "values": [
      {"measurement": "Potency relative to morphine", "setting": "[1]", "value": 50, "unit": "times"}
    ]},
    {"smiles": "Cc1cc([C@H]2C[C@@H]3CC[C@H]2N3)on1", "note": "[Compound 7, epiboxidine]", "values": [
      {"measurement": "Fold less potent than compound 4 in the displacement of [3H]nicotine", "setting": "[2]", "value": "approximately 10 fold"},
      {"measurement": "Fold more potent than compound 6 in the displacement of [3H]nicotine", "setting": "[2]", "value": 17, "unit": "fold"}
    ]},
    {"smiles": "Cc1cc(OC[C@@H]2CCN2)on1", "note": "[Compound 43, 5-[(2(S)-Azetidinyl)methoxy]-3-methylisoxazole]", "values": [
      {"measurement": "Agonist activity at α4β2-nAChRs", "setting": "human α4β2-nAChR", "value": "full agonist activity"},
      {"measurement": "Agonist activity at α3β4*-nAChRs", "setting": "α3β4*-nAChR", "value": "full agonist activity"},
      {"measurement": "CYP3A4 activity, % of the control", "setting": "CYP3A4", "value": "≥ 70", "unit": "%"},
      {"measurement": "Immobility in the forced swim test", "setting": "[3]; 1 mg/kg ip, 30 min before test, 6 min trial, vs vehicle", "value": "reduced immobility"},
      {"measurement": "Immobility in the forced swim test", "setting": "[3]; 1 mg/kg orally, 30 min before test, 6 min trial", "value": "inactive"},
      {"measurement": "Immobility in the forced swim test", "setting": "[3]; 5 mg/kg ip, 30 min before test, 6 min trial, vs vehicle", "value": "reduced immobility"},
      {"measurement": "CYP2D6 activity, % of the control", "setting": "CYP2D6", "value": "≥ 70", "unit": "%"},
      {"measurement": "CYP2B6 activity, % of the control", "setting": "CYP2B6", "value": "≥ 70", "unit": "%"},
      {"measurement": "Inhibition in the preliminary binding screen", "setting": "[4]", "value": "≤ 50", "unit": "%"},
      {"measurement": "CYP1A2 activity, % of the control", "setting": "CYP1A2", "value": "≥ 70", "unit": "%"},
      {"measurement": "CYP2C9 activity, % of the control", "setting": "CYP2C9", "value": "≥ 70", "unit": "%"},
      {"measurement": "CYP2C19 activity, % of the control", "setting": "CYP2C19", "value": "≥ 70", "unit": "%"},
      {"measurement": "Activity at the α1β1γδ-nAChR", "setting": "α1β1γδ-nAChR", "value": "little activity; also recorded: inactive"}
    ]},
    {"smiles": "CN[C@H]1CC[C@@H](c2ccc(Cl)c(Cl)c2)c2ccccc21", "note": "[sertraline, reference compound]", "values": [
      {"measurement": "Immobility in the forced swim test", "setting": "[3]; positive control, 10 mg/kg (10 or 20 mg/kg in method), ip or orally", "value": "expected decrease in immobility"}
    ]},
    {"smiles": "FCc1cc(OC[C@@H]2CCN2)on1", "note": "[Compound 39, 5-[(2(S)-Azetidinyl)methoxy]-3-(fluoromethyl)isoxazole Trifluoroacetate]", "values": [
      {"measurement": "Activity at the α1β1γδ-nAChR", "setting": "α1β1γδ-nAChR", "value": "little activity; also recorded: inactive"}
    ]}
  ]
}
